Twelve compounds from US7408065B2, “P2X7 receptor antagonists and their use” (AstraZeneca AB, priority 2003, dated 2008) can be followed below.

pIC50: −log10 of the molar value. Counter-ions that a name gives are not always drawn. Like-named read-outs stand apart in the source and are kept apart here.

One data set has as its target T1, P2X7 receptor (Homo sapiens, UniProt Q99572).
T1 construct: 200 μl of a suspension of THP-1 cells; endogenous in cells; host or cells: THP-1 cells
T1 sequence (Q99572 1-595): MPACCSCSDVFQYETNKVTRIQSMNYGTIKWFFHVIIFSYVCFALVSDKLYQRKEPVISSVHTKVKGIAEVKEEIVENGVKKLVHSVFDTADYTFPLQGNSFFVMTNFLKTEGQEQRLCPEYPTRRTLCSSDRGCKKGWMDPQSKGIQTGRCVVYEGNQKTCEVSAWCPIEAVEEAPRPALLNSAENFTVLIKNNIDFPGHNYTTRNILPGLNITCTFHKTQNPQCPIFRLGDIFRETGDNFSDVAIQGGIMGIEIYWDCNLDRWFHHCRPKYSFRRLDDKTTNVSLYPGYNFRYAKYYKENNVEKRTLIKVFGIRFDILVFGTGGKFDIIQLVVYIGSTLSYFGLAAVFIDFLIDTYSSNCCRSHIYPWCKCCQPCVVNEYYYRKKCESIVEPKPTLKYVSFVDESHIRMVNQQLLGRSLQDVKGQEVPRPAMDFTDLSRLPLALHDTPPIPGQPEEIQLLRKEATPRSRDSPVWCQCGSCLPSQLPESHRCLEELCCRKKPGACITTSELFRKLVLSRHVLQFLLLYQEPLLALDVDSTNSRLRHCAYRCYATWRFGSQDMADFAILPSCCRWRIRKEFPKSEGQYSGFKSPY
In words: P2X7 receptor antagonist activity: bbATP-induced ethidium bromide fluorescence in THP-1 cells. It is filed as cell-based. The settings on record: for IC50: THP-1 cells, negative logarithm of concentration reducing bbATP agonist activity by 50%, ethidium bromide fluorescence, 37° C., one hour, read-out: pIC50 (converted). As to the method:
Consequently, when the receptor is activated using bbATP in the presence of ethidium bromide (a fluorescent DNA probe), an increase in the fluorescence of intracellular DNA-bound ethidium bromide is observed. The increase in fluorescence can be used as a measure of P2X7 receptor activation and therefore to quantify the effect of a compound on the P2X7 receptor.
In this manner, each of the title compounds of the Examples was tested for antagonist activity at the P2X7 receptor. Thus, the test was performed in 96-well flat bottomed microtitre plates, the wells being filled with 250 μl of test solution comprising 200 μl of a suspension of THP-1 cells (2.5×10^6 cells/ml) containing 10^−4M ethidium bromide, 25 μl of a high potassium buffer solution containing 10^−5M bbATP, and 25 μl of the high potassium buffer solution containing 3×10^−5M test compound. The plate was covered with a plastics sheet and incubated at 37° C. for one hour. […] For the purposes of comparison, bbATP (a P2X7 receptor agonist) and pyridoxal 5-phosphate (a P2X7 receptor antagonist) were used separately in the test as controls.

As for `CS(=O)(=O)NC(=O)NCCCc1ccc2c(NC(=O)CC3CCCCC3)c(Cl)ccc2n1` [Example 24, N-[6-Chloro-2-[3-[[[(methylsulfonyl)amino]carbonyl]amino]propyl]-5-quinolinyl]-cyclohexaneacetamide], the melting point (as a rule, the temperature, or range, at which the solid turns liquid) is 151 to 152 °C. In addition, at P2X7 receptor, the pIC50 (commonly the IC50 on a negative log10 scale, so that one unit is a factor of ten) was 6.30.

`O=C(O)CN1CCN(c2ccc3c(C(=O)NCC4CCCCC4)c(Cl)ccc3n2)CC1` [Example 73, 4-[6-Chloro-5-[[(cyclohexylmethyl)amino]carbonyl]-2-quinolinyl]-1-piperazineacetic acid, Acetate]: the IC50 on P2X7 receptor is 398 nM.

Turning to `O=C(CC1CCCCC1)Nc1c(Cl)ccc2nc(N3CC[C@@H](O)C3)ccc12` [Example 28, N-[6-Chloro-2-[(3R)-3-hydroxy-1-pyrrolidinyl]-5-quinolinyl]-cyclohexaneacetamide], the melting point is 226 to 227 °C. Moreover, the IC50 on P2X7 receptor is 39.8 nM.

Consider `O=C(CC1CCCCC1)Nc1c(Cl)ccc2nc(NCCCO)ccc12` [Example 5, N-[6-Chloro-2-[(3-hydroxypropyl)amino]-5-quinolinyl]-cyclohexaneacetamide, Hydrochloride], for which, at P2X7 receptor, the IC50 was 126 nM.

`O=C(CC1CCCCC1)Nc1c(Cl)ccc2nc(N3CCC[C@@H](O)C3)ccc12` [Example 37, N-[6-Chloro-2-[(3R)-3-hydroxy-1-piperidinyl]-5-quinolinyl]-cyclohexaneacetamide]: the melting point was in the range of 209 to 214 °C. Moreover, the IC50 on P2X7 receptor is 50.1 nM.

Consider `CC1CCC(CC(=O)Nc2cccc3ncccc23)CC1` (centres unmarked) [Example 20, 4-Methyl-N-5-quinolinyl-cyclohexaneacetamide], for which, at P2X7 receptor, the IC50 was 126 nM.

For `O=C(CC1CCCCC1)Nc1c(Cl)ccc2nc(N3CCC(c4noc(=O)[nH]4)CC3)ccc12` [Example 102, N-[6-Chloro-2-[4-(4,5-dihydro-5-oxo-1,2,4-oxadiazol-3-yl)-1-piperidinyl]-5-quinolinyl]-cyclohexaneacetamide], the melting point lay within 233 to 235 °C. The IC50 on P2X7 receptor was 200 nM.

With `O=C1CN([C@H]2CCN(c3ccc4c(C(=O)NCC5CCCCC5)c(Cl)ccc4n3)C2)S(=O)(=O)N1` [Example 112, 6-Chloro-N-(cyclohexylmethyl)-2-[(3S)-3-(1,1-dioxido-4-oxo-1,2,5-thiadiazolidin-2-yl)-1-pyrrolidinyl]-5-quinolinecarboxamide], the IC50 at P2X7 receptor was 316 nM.

On to `O=C(CC1CCCCC1)Nc1c(Cl)ccc2nc(NCCNCCO)ccc12` [Example 17, N-[6-Chloro-2-[[2-[(2-hydroxyethyl)amino]ethyl]amino]-5-quinolinyl]-cyclohexaneacetamide, Dihydrochloride], for which the IC50 at P2X7 receptor is 25.1 nM.

For the compound `CN[C@@H]1CCN(c2ccc3c(NC(=O)CC4CCCCC4)c(Cl)ccc3n2)C1` [Example 33, N-[6-Chloro-2-[(3R)-3-(methylamino)-1-pyrrolidinyl]-5-quinolinyl]-cyclohexaneacetamide], the melting point was found to be 169 °C. In addition, the IC50 on P2X7 receptor was 25.1 nM.

With `O=C(NCC1CCCCC1)c1c(Cl)ccc2ncccc12` [Example 42, 6-Chloro-N-(cyclohexylmethyl)quinoline-5-carboxamide], the IC50 on P2X7 receptor was 316 nM.

Compound `O=C(CC1CCCCC1)Nc1c(Cl)ccc2nc(N3CC[C@H](NS(=O)(=O)C(F)(F)F)C3)ccc12` [Example 88, N-[6-Chloro-2-[(3S)-3-[[(trifluoromethyl)sulfonyl]amino]-1-pyrrolidinyl]-5-quinolinyl]-cyclohexaneacetamide] gave a melting point of 178 to 200 °C.
